For this assay, the system named is EPCR. In words: EPCR surface expression on cultured CD34+ cells by flow cytometry.

Method: Fresh or cultured CB cells were labelled or sorted for different HSPC phenotypes using the following antibodies. […] Cells were analyzed on a BD Canto flow cytometer, and cell sorting (under low pressure conditions) was conducted on a BD Aria II cell sorter.

With `Nc1cccc2c1CN(C1CCC(=O)NC1=O)C2=O` (centres unmarked) [lenalidomide], the “enrichment / expansion of EPCR+ population of cells” value (CD34+ cells (FIG. 17)) was “enriches”.

With `CC(C)n1cnc2c(NCCc3ccc(O)cc3)nc(-c3csc4ccccc34)nc21` [SR1], under “CB, mPB or BM CD34+ cells, 7 days, UM171 38 nM, SR1 1000 nM (FIG. 2)”, the “increase in proportion of EPCR+ cells / EPCR expression” value is “small increase”.

(Values after patent publication US11725187B2, “Selection of human hematopoetic stem cells using EPCR” (UNIVERSITE DE MONTREAL, priority 2016, dated 2023).)
